Experimental data taken from patent EP2611798B1, “PYRIDAZINONES, METHOD OF MAKING, AND METHOD OF USE THEREOF” (Gilead Connecticut, Inc., priority 2010, dated 2012).

Each compound was assayed against T1, full length human wildtype Btk (Homo sapiens, UniProt Q06187) (assay: Biochemical Btk Kinase Assay (Example 901)). Details: time-resolved fluorescence, final ATP concentration 40 µM; alternatively Lanthascreen assay, ATP 25 uM.
T1 construct: V5 (C); 6xHis (C); made in house; host or cells: Sf9 insect cells (baculovirus, pFastBac)
Experimental: Formula I compounds were tested by a standard biochemical Btk Kinase Assay (Example 901). A generalized procedure for a standard biochemical Btk Kinase Assay that can be used to test Formula I compounds is as follows. […] Btk enzyme is prepared as follows: full length human wildtype Btk (accession number NM-000061) with a C-terminal V5 and 6x His tag was subcloned into pFastBac vector for making baculovirus carrying this epitope-tagged Btk. Generation of baculovirus is done based on Invitrogen's instructions detailed in its published protocol "Bac-to-Bac Baculovirus Expression Systems" (Cat. Nos. 10359-016 and 10608-016). Passage 3 virus is used to infect Sf9 cells to overexpress the recombinant Btk protein. The Btk protein is then purified to homogeneity using Ni-NTA column. The purity of the final protein preparation is greater than 95% based on the sensitive Sypro-Ruby staining. A solution of 200 µM ATP is prepared in water and adjusted to pH7.4 with 1N NaOH. A quantity of 1.25 µL of compounds in 5%DMSO is transferred to a 96-well ½ area Costar polystyrene plate. Compounds are tested singly and with an 11-point dose-responsive curve (starting concentration is 10 µM; 1:2 dilution). A quantity of 18.75 µL of master mix minus enzyme (as a negative control) and master mix plus enzyme is transferred to appropriate wells in 96-well ½ area costar polystyrene plate. 5 µL of 200 µM ATP is added to that mixture in the 96-well ½ area Costar polystyrene plate for final ATP concentration of 40 µM. The reaction is allowed to incubate for 1 hour at room temperature. The reaction is stopped with Perkin Elmer 1X detection buffer containing 30 mM EDTA, 20 nM SA-APC, and 1 nM PT66 Ab. The plate is read using time-resolved fluorescence with a Perkin Elmer Envision using excitation filter 330 nm, emission filter 665 nm, and 2nd emission filter 615 nm. IC50 values are subsequently calculated. Alternatively, the Lanthascreen assay can be used to evaluate Btk activity through quantification of its phosphorylated peptide product. The FRET (Fluorescence Resonance Energy Transfer) that occurs between the fluorescein on the peptide product and the terbium on the detection antibody decreases with the addition of inhibitors of Btk that reduce the phosphorylation of the peptide. […] After incubation for 60 minutes at room temperature, the reaction is stopped by the addition of a final concentration of 2 nM Tb-PY20 detection antibody in 60 mM EDTA for 30 minutes at room temperature. Detection is determined on a Perkin Elmer Envision with 340 nm excitation and emission at 495 nm and 520 nm. Exemplary Btk inhibition IC50 values are in Tables and 2.

T1 sequence (Q06187 whole entry): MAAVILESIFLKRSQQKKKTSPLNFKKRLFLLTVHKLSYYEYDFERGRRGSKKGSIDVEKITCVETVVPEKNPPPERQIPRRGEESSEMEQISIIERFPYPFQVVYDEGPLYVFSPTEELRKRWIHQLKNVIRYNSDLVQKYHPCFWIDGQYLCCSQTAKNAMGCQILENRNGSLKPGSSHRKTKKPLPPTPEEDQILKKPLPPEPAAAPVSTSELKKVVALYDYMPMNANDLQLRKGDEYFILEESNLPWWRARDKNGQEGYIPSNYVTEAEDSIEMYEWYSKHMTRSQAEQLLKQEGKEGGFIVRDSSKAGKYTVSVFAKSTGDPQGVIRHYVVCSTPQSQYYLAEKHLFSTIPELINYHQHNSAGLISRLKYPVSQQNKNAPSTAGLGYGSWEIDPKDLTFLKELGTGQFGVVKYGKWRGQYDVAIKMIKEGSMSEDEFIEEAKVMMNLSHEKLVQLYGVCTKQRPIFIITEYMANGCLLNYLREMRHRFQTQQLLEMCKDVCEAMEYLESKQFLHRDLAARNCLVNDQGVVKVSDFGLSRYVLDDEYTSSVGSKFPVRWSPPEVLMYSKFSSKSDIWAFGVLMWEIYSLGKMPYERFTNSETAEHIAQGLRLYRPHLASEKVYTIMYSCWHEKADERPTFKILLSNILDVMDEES

| SMILES | IC50 [nM] |
| --- | --- |
| Cc1c(-c2cc(Nc3cc(C)n(C)n3)c(=O)[nH]n2)cccc1N1Cc2cc(C(C)(C)C)sc2C1=O [Compound 112, 6-(3-{2-tert-butyl-6-oxo-4H,5H,6H-thieno[2,3-c]pyrrol-5-yl}-2-methylphenyl)-4-[(1,5-dimethyl-1 H-pyrazol-3-yl)amino]-2,3-dihydropyridazin-3-one] | 3 |
| Cc1cc(Nc2cc(-c3cccc(N4Cc5cc(C(C)(C)C)sc5C4=O)c3C)n[nH]c2=O)no1 [Compound 115, 6-(3-{2-tert-butyl-6-oxo-4H,5H,6H-thieno[2,3-c]pyrrol-5-yl}-2-methylphenyl)-4-[(5-methyl-1,2-oxazol-3-yl)amino]-2,3-dihydropyridazin-3-one] | 18 |
| Cc1cc(Nc2cc(-c3ccc(F)c(N4Cc5cc(C(C)(C)C)sc5C4=O)n3)n[nH]c2=O)nn1C [Compound 117, 6-(6-{2-tert-butyl-b-oxo-4H,5H,6H-thieno[2,3-c]pyrrol-5-yl}-5-fluoropyridin-2-yl)-4-[(1,5-dimethyl-1H-pyrazol-3-yl)amino]-2,3-dihydropyridazin-3-one] | 45 |
| Cc1c(-c2cc(Nc3nc4c(s3)CNCC4)c(=O)[nH]n2)cccc1N1Cc2cc(C(C)(C)C)sc2C1=O [Compound 118, 6-(3-{2-tert-butyl-6-oxo-4H,5H,6H-thieno[2,3-c]pyrrol-5-yl}-2-methylphenyl)-4-{4H,5H,6H,7H-pyrido[4,3-d][1,3]thiazol-2-ylamino}-2,3-dihydropyridazin-3-one] | 65 |
| Cc1c(-c2cc(Nc3cc(CN4CC(F)(F)C4)n(C)n3)c(=O)[nH]n2)cccc1N1Cc2cc(C(C)(C)C)sc2C1=O [Compound 119, 6-(3-{2-tert-butyl-6-oxo-4H,5H,6H-thieno[2,3-c]pyrrol-5-yl}-2-methylphenyl)-4-({5-[(3,3-difluoroazetidin-1-yl)methyl]-1-methyl-1H-pyrazol-3-yl}amino)-2,3-dihydropyridazin-3-one] | 5 |
| CN1CCn2nc(Nc3cc(-c4cccc(N5Cc6cc(C(C)(C)C)sc6C5=O)c4CO)nn(C)c3=O)cc2C1 [Compound 120, 6-(3-{2-tert-butyl-6-oxo-4H,5H,6H-thieno[2,3-c]pyrrol-5-yl}-2-(hydroxymethyl)phenyl)-2-methyl-4-({5-methyl-4H,5H,6H,7H-pyrazolo[1,5-a]pyrazin-2-yl}amino)-2,3-dihydropyridazin-3-one] | 55 |

These compounds were tested on production of CD69 by B lymphocytes in human whole blood (assay: CD69 Whole Blood Assay (Example 907)). Details: Lymphocyte; human whole blood activated with goat F(ab')2 anti-human IgM, 20 hours; percent CD69 positive cells that are also CD20 positive.
Type: cell-based
Source text: A CD69 Whole Blood Assay can be conducted on Formula I compounds to determine the ability of compounds to inhibit the production of CD69 by B lymphocytes in human whole blood activated by crosslinking surface IgM with goat F(ab')2 anti-human IgM (Example 907).
Human blood is obtained from healthy volunteers, with the following restrictions: 1 week drug-free, non-smokers. Blood (approximately 20 mls to test 8 compounds) is collected by venipuncture into Vacutainer® (Becton, Dickinson and Co.) tubes with sodium heparin.
Solutions of Formula I compounds at 10 mM in DMSO are diluted 1:10 in 100% DMSO, then are diluted by three-fold serial dilutions in 100% DMSO for a ten point dose-response curve. The compounds are further diluted 1:10 in PBS and then an aliquot of 5.5 µl of each compound is added in duplicate to a 2 ml 96-well plate; 5.5 µl of 10% DMSO in PBS is added as control and no-stimulus wells. Human whole blood - HWB (100 µl) is added to each well. After mixing the plates are incubated at 37 °C, 5% CO2, 100% humidity for 30 minutes. Goat F(ab')2 anti-human IgM (10 µl of a 500 µg/ml solution, 50 µg/ml final) is added to each well (except the no-stimulus wells) with mixing and the plates are incubated for an additional 20 hours. At the end of the 20 hour incubation, samples are incubated with fluorescent labeled antibodies for 30 minutes, at 37 °C, 5% CO2, 100% humidity. Include induced control, unstained and single stains for compensation adjustments and initial voltage settings. Samples are then lysed with PharM Lyse™ (BD Biosciences Pharmingen) according to the manufacturer's instructions. Samples are then transferred to a 96 well plate suitable to be run on the BD Biosciences HTS 96 well system on the LSRII machine. Data acquired and Mean Fluorescence Intensity values were obtained using BD Biosciences DIVA Software. Results are initially analyzed by FACS analysis software (Flow Jo). […] The IC50 values are calculated by Prism version 5, using a nonlinear regression curve fit.

| IC50 [nM] | SMILES |
| --- | --- |
| 568 | CC(=O)N1CCn2nc(Nc3cc(-c4cccc(N5Cc6cc(C(C)(C)C)sc6C5=O)c4CCO)nn(C)c3=O)cc2C1 [Compound 128, 6-(3-{2-tert-butyl-6-oxo-4H,5H,6H-thieno[2,3-c]pyrrol-5-yl}-2-(2-hydroxyethyl)phenyl)-4-({5-acetyl-4H,5H,6H,7H-pyrazolo[1,5-a]pyrazin-2-yl}amino)-2-methyl-2,3-dihydropyridazin-3-one] |

The compounds below were run on CD86 surface expression (assay: CD86 Inhibition Assay (Example 905), inhibition of B cell activity in total mouse splenocytes). Details: Splenocyte; total mouse splenocytes stimulated with 15 µg/ml IgM for 24 hr; gated on CD19+/7AAD- population.
Type: cell-based, Balb/c mice
Experimental: A CD86 Inhibition assay can be conducted on Formula I compounds for the inhibition of B cell activity using total mouse splenocytes purified from spleens of 8-16 week old Balb/c mice (Example 905).
A generalized procedure for a standard assay for the inhibition of B cell activity that can be used to test Formula I compounds is as follows. Total mouse splenocytes are purified from spleens of 8-16 week old Balb/c mice by red blood cell lysis (BD Pharmingen #555899). Testing compounds are diluted to 0.5% DMSO and incubated with 1.25 x 10^6 splenocytes in a final volume of 200 µl in flat clear bottom plates (Falcon 353072) for 60 min at 37°C. Cells are then stimulated with the addition of 15 µg/ml IgM (Jackson ImmunoResearch 115-006-020), and incubated for 24 hr at 37°C, 5% CO2. Following the 24 hr incubation, cells are transferred to conical bottom clear 96-well plates and pelleted by centrifugation at 1200 x g x 5 min. Cells are preblocked by CD16/CD32 (BD Pharmingen #553142), followed by triple staining with CD19-FITC (BD Pharmingen #553785), CD86-PE (BD Pharmingen #553692), and 7AAD (BD Pharmingen #51-68981E). Cells are sorted on a BD FACSCalibur and gated on the CD19^+/7AAD^- population. The levels of CD86 surface expression on the gated population is measured versus test compound concentration. Exemplary results are in Table 3.

| EC50 [nM] | SMILES |
| --- | --- |
| 192 | Cc1c(-c2cc(Nc3cc4n(n3)CCN(C)C4)c(=O)[nH]n2)cccc1N1Cc2cc(C(C)(C)C)sc2C1=O [Compound 101, 6-(3-{2-tert-butyl-6-oxo-4H,5H,6H-thieno[2,3-c]pyrrol-5-yl}-2-methylphenyl)-4-({5-methyl-4H,5H,6H,7H-pyrazolo[1,5-a]pyrazin-2-yl}amino)-2,3-dihydropyridazin-3-one] |
| 1100 | Cc1c(-c2cc(Nc3cc4n(n3)CCN(C)C4)c(=O)n(C)n2)cc(F)cc1N1Cc2cc(C(C)(C)C)sc2C1=O [Compound 124, 6-(3-{2-tert-butyl-6-oxo-4H,5H,6H-thieno[2,3-c]pyrrol-5-yl}-5-fluoro-2-methylphenyl)-2-methyl-4-({5-methyl-4H,5H,6H,7H-pyrazolo[1,5-a]pyrazin-2-yl}amino)-2,3-dihydropyridazin-3-one] |
| 178 | Cn1nc(-c2cccc(N3Cc4cc(C(C)(C)C)sc4C3=O)c2CO)cc(Nc2cc(C3CC3)[nH]n2)c1=O [Compound 127, 6-(3-{2-tert-butyl-6-oxo-4H,5H,6H-thieno[2,3-c]pyrrol-5-yl}-2-(hydroxymethyl)phenyl)-4-[(5-cyclopropyl-1H-pyrazol-3-yl)amino]-2-methyl-2,3-dihydropyridazin-3-one] |
| 139 | Cc1cc(Nc2cc(-c3cccc(N4Cc5cc(C(C)(C)C)sc5C4=O)c3CO)nn(C)c2=O)nn1C [Compound 131, 6-(3-{2-tert-butyl-6-oxo-4H,5H,6H-thieno[2,3-c]pyrrol-5-yl}-2-(hydroxymethyl)phenyl)-4-[(1,5-dimethyl-1H-pyrazol-3-yl)amino]-2-methyl-2,3-dihydropyridazin-3-one] |
| 113 | CC(=O)N1CCn2nc(Nc3cc(-c4cccc(N5Cc6cc(C(C)(C)C)sc6C5=O)c4CO)nn(C)c3=O)cc2C1 [Compound 132, 6-(3-{2-tert-butyl-6-oxo-4H,5H,6H-thieno[2,3-c]pyrrol-5-yl}-2-(hydroxymethyl)phenyl)-4-({5-acetyl-4H,5H,6H,7H-pyrazolo[1,5-a]pyrazin-2-yl}amino)-2-methyl-2,3-dihydropyridazin-3-one] |
| 206 | Cn1nc(-c2cccc(N3Cc4cc(C(C)(C)C)sc4C3=O)c2CO)cc(Nc2cc3n(n2)CCCOC3)c1=O [Compound 134, 6-(3-{2-tert-butyl-6-oxo-4H,5H,6H-thieno[2,3-c]pyrrol-5-yl}-2-(hydroxymethyl)phenyl)-2-methyl-4-{4H,6H,7H,8H-pyrazolo[3,2-c][1,4]oxazepin-2-ylamino}-2,3-dihydropyridazin-3-one] |
| 704 | Cn1nc(-c2cccc(N3Cc4cc(C(C)(C)C)sc4C3=O)c2CO)cc(Nc2ccncn2)c1=O [Compound 136, 6-(3-{2-tert-butyl-6-oxo-4H,5H,6H-thieno[2,3-c]pyrrol-5-yl}-2-(hydroxymethyl)phenyl)-2-methyl-4-(pyrimidin-4-ylamino)-2,3-dihydropyridazin-3-one] |

| SMILES | EC50 [nM] |
| --- | --- |
| Cc1c(-c2cc(Nc3cc(CN4CC(F)(F)C4)n(C)n3)c(=O)[nH]n2)cccc1N1Cc2cc(C(C)(C)C)sc2C1=O [Compound 119, 6-(3-{2-tert-butyl-6-oxo-4H,5H,6H-thieno[2,3-c]pyrrol-5-yl}-2-methylphenyl)-4-({5-[(3,3-difluoroazetidin-1-yl)methyl]-1-methyl-1H-pyrazol-3-yl}amino)-2,3-dihydropyridazin-3-one] | 352 |
| CN1CCn2nc(Nc3cc(-c4cccc(N5Cc6cc(C(C)(C)C)sc6C5=O)c4CO)nn(C)c3=O)cc2C1 [Compound 120, 6-(3-{2-tert-butyl-6-oxo-4H,5H,6H-thieno[2,3-c]pyrrol-5-yl}-2-(hydroxymethyl)phenyl)-2-methyl-4-({5-methyl-4H,5H,6H,7H-pyrazolo[1,5-a]pyrazin-2-yl}amino)-2,3-dihydropyridazin-3-one] | 189 |
